Reference: paper PMC8899820, “Pharmacokinetics, Tissue Distribution, and Excretion Characteristics of a Radix Polygoni Multiflori Extract in Rats” (Frontiers in Pharmacology, 2022)
Like-named read-outs stand apart in the source and are kept apart here.

Tests used:
[1] = cited from earlier work
in vivo [2] = settings: Sprague-Dawley, rat, po, 18 g/kg
Description: (§1) For the tissue distribution study, 18 rats were randomly divided into three groups (n = 6, each) and orally administered 18 g/kg RPM extract. The rats under isoflurane anesthesia were sacrificed by bleeding from the abdominal aorta at 5, 15, and 60 min (six rats per time point) after gavage with 18 g/kg RPM extract. Subsequently, the heart, liver, spleen, lung, kidney, brain, stomach, small intestine, bladder, and gonads (testes of male rats, and uterus and ovaries of female rats) were immediately collected. An accurately weighed amount of fresh tissue sample (0.25 g) was individually homogenized with normal saline (1 ml) and transferred (50 μL) as a tissue homogenate to 1.5 ml centrifuge tubes for use as the tissue samples. All tissue samples were stored at −70°C until analysis.
(§2) Samples were prepared using the protein precipitation process. […] The tissue samples were homogenized in four parts of ice-cold 0.9% saline solution and then centrifuged at 4°C and 12,000 × g for 10 min to obtain tissue homogenates. […] Tissue homogenate, urine, bile and fecal samples were subjected to a similar process as the rat plasma samples.
(§3) For the tissue distribution study, 18 rats were randomly divided into three groups (n=6, each), and orally administered with 18 g/kg RPM extract. The rats were sacrificed at 5, 15, 60 min after orally administering RPM. Subsequently, the heart, liver, spleen, lung, kidney, brain, stomach, small intestine, bladder, gonad (testes of male rats, uterus and ovaries of female rats) were immediately collected. An accurately weighed amount of fresh tissue sample (0.25 g) was individually homogenized with normal saline (1 mL) and transferred (50 μL) as a tissue homogenate to 1.5 mL centrifuge tubes for use as the tissue samples.

[3] = rat, in vivo, po
Excerpt: (§4) For the pharmacokinetic (PK) study, three groups (n = 6 each) of rats were orally administered RPM extract (6, 18, and 36 g/kg). In the plasma pharmacokinetics experiment, doses were 6, 18, and 36 g/kg for the single administration group and 18 g/kg for the continuous administration group. The doses were set at a subtoxic level ([Zhang et al., 2013]; [Wang et al., 2015]) to investigate the pharmacokinetic profiles of the constituents of RPM (36 g/kg group) and were approximately 60 times the upper dose (6 g/day) for humans recommended by the 2020 edition of Chinese Pharmacopoeia ([Chinese Pharmacopoeia Commission, 2020]), which was converted to a dose for rats based on body surface area conversion ([Reagan-Shaw et al., 2008]). In addition, the low and medium doses decreased in a certain proportion. Serial blood samples (∼120 μL; before dosing and at 5, 15, and 30 min, and 1, 2, 4, 6, 8, 12, and 24 h after administration) were collected in heparinized tubes from the orbital sinus under light isoflurane. The blood samples were centrifuged at 12000 g for 2 min, and the plasma fractions were decanted and frozen at −70°C until analysis.
(§5) Samples were prepared using the protein precipitation process. Rat plasma (50 μL) spiked with 10 μL of IS (puerarin 100 ng/ml) was extracted with 150 μL acetonitrile. After vortex shaking for 5 min and centrifugation at 14,000 g for 5 min, 150 μL of the organic layer was transferred to a clean tube and evaporated to dryness at 25°C under a stream of nitrogen. The residue was reconstituted in 50 μL of the initial mobile phase and subjected to another round of centrifugation at 14,000 g for 5 min, and 5 μL of the supernatant was injected for LC–MS/MS analysis.
(§6) The analysis was performed on an AB Sciex API 5500 Q Trap mass spectrometer (Toronto, Canada), interfaced with a Waters Acquity UPLC separation module.
(§7) The pharmacokinetic parameters, including the area under the plasma concentration-time curve from time zero to time t (AUC0-t) to time infinity (AUC0-∞), the time to reach the maximum plasma concentration (T max), the elimination half-time (t 1/2), and the maximum plasma concentration (C max), were calculated using the pharmacokinetic software Phoenix® WinNonlin®, version 7.0 (Scientific Consulting Inc., Apex, NC, United States). Data are expressed as the mean ± standard deviation (SD) for each group. The dose-exposure relationship was evaluated by the power function model combined with the confidence interval method ([Smith et al., 2000]; [Sethuraman et al., 2007]; [Hummel et al., 2009]). First, the administration dose, AUC0-∞ and C max were logarithmically transformed, and then a linear regression was performed to obtain the curve correlation coefficient (R^2), slope and 90% confidence interval (90% CI).

[4] = rat, in vivo
Description: as §7

in vivo [5] = settings: Sprague-Dawley, rat, po
Excerpt: as §4, §5, §6, §7

[6] = Excretion into urine and feces and mass balance after oral RPM extract; settings: for dose excreted: Sprague-Dawley, rat, po, mass balance, 18 g/kg RPM extract p.o.
Description: (§8) For the excretion study, the rats were housed singly in metabolic cages with urine collection tubes kept at 4 °C during sample collection. Urine and fecal samples were collected at time intervals of 0–4, 4–8, 8–24, 24–32, and 32–48 h after a single dose of RPM extract at 18 g/kg and then weighed. Another six rats were anesthetized with pentobarbital, fixed in the supine position and subjected to bile duct drainage surgery, and the abdominal wound was sutured. Blank bile samples were collected before the administration of RPM. The rats were weighed, and the state of the rats was observed. Subsequently, they were orally administered 18 g/kg RPM extract. The bile samples were collected at time intervals of 0–1, 1–2, 2–4, 4–6, 6–8, 8–24, 24–32 and 32–48 h. The urine, feces, and bile samples were stored at −70°C until use.
(§9) Samples were prepared using the protein precipitation process. […] After vortex shaking for 5 min and centrifugation at 14,000 g for 5 min, 150 μL of the organic layer was transferred to a clean tube and evaporated to dryness at 25°C under a stream of nitrogen. The residue was reconstituted in 50 μL of the initial mobile phase and subjected to another round of centrifugation at 14,000 g for 5 min, and 5 μL of the supernatant was injected for LC–MS/MS analysis. […] Urine and bile samples were centrifuged at 4°C and 12,000 × g for 15 min. Fecal samples were homogenized in 0.9% saline and then centrifuged at 4°C and 12,000 × g for 15 min to gather the fecal homogenates. Tissue homogenate, urine, bile and fecal samples were subjected to a similar process as the rat plasma samples.
(§10) For the excretion study, 6 rats were placed in metabolic cage after orally administered with 18 g/kg RPM extract, and urine, feces samples were collected at time intervals of 0–4, 4–8, 8–24, 24–32, 32–48, 48–60, and 60–72 h. Another 6 rats were anesthetized with pentobarbital, fixed in the supine position and performed bile duct drainage operation, and the abdominal wound was sutured. […] Subsequently, they were orally administered with 18 g/kg RPM extract. The bile samples were collected at time intervals of 0–1, 1–2, 2–4, 4–6, 6–8, 8–24, 24–32 and 32–48 h. The urine, feces, and bile samples were stored at −70 °C until use.

[7] = Biliary excretion in bile duct drained rats after oral RPM extract; settings: single p.o. RPM extract 18 g/kg, rat bile
Description: as §8, §9, §10

[8] = Plasma pharmacokinetics of RPM constituents after oral RPM extract; settings: for AUC(0-inf) / AUC(0-t) / Cmax / MRT inf / Tmax / half-life: Sprague-Dawley, rat, plasma, po
Excerpt: as §4, §5, §6, §7

[9] = Tissue distribution of RPM constituents after oral RPM extract; settings: for AUC(0-t): Sprague-Dawley, rat, po, 18 g/kg
Description: as §1, §2, §3

[10] = ref Liu et al., 2010; cited from earlier work
[11] = Dose-exposure relationship (power function model with confidence interval method)
Description: as §7

[12] = RPM extract 36 g/kg p.o., rat plasma, Mean ± SD, n = 6, ref Cheng et al., 2020

For `O=C1c2cc(O)cc(O)c2C(=O)c2c(O)cc(CO)cc21` [Citreorosein], the “AUC0-∞” value ([1]; rat, in vivo, po, 36 g/kg) is listed as 468 ± 337 nmol·h/L, the AUC(0-t) ([1]; rat, in vivo, po, 36 g/kg) is listed as 458 ± 338 nmol·h/L and the Cmax ([1]; rat, in vivo, po, 36 g/kg) is listed as 521 ± 512 nM. For the same molecule, the AUC(0-t) (in vivo [2]; both, AUC0-t in bladder) was 0.0604 µM·h, the AUC(0-t) (in vivo [2]; both, AUC0-t in brain) was 0.00583 µM·h and the AUC(0-t) (in vivo [2]; both, AUC0-t in heart) was 0.65 µM·h. For the same molecule, the AUC(0-t) (in vivo [2]; both, AUC0-t in intestine) was 0.211 µM·h, the AUC(0-t) (in vivo [2]; both, AUC0-t in kidney) was 0.587 µM·h and the AUC(0-t) (in vivo [2]; both, AUC0-t in liver) was 1.6 µM·h. For the same molecule, the AUC(0-t) (in vivo [2]; both, AUC0-t in lung) was 0.58 µM·h, the AUC(0-t) (in vivo [2]; both, AUC0-t in spleen) was 0.873 µM·h and the AUC(0-t) (in vivo [2]; both, AUC0-t in stomach) was 0.783 µM·h. The AUC(0-t) (in vivo [2]; female, AUC0-t in ovary) was 0.227 µM·h, the AUC(0-t) (in vivo [2]; female, AUC0-t in uterus) was 0.104 µM·h and the AUC(0-t) (in vivo [2]; male, AUC0-t in testis) was 0.0137 µM·h. For the same molecule, the “time at which C max was exhibited” value [3] was ≤ 20 min, the “Conclusion (dose-exposure relationship)” value [4] was “Uncertainty of linear relationship” and the AUC(0-inf) (in vivo [5]; 6 g/kg) was 0.0961 ± 0.0171 µM·h. It also gave an AUC(0-t) (in vivo [5]; 6 g/kg) of 0.0872 ± 0.0215 µM·h, a Cmax (in vivo [5]; 6 g/kg) of 41.2 ± 8.8 nM and an MRT inf (in vivo [5]; 6 g/kg) of 6.87 ± 1.42 h. For the same molecule, the Tmax (in vivo [5]; 6 g/kg) was 0.25 h, the half-life (in vivo [5]; 6 g/kg) was 5.07 ± 1.32 h and the AUC(0-inf) (in vivo [5]; 18 g/kg) was 0.558 ± 0.499 µM·h. It also gave an AUC(0-t) (in vivo [5]; 18 g/kg) of 0.416 ± 0.251 µM·h, a Cmax (in vivo [5]; 18 g/kg) of 349 ± 216 nM and an MRT inf (in vivo [5]; 18 g/kg) of 5.69 ± 1.57 h. The half-life (in vivo [5]; 18 g/kg) was 3.78 ± 0.75 h.
In the case of `Cc1cc(O)c2c(c1)C(=O)c1cc(O)cc(O)c1C2=O` [Emodin, emodin], the “AUC0-∞” value [1, 12] is given as 2,970 ± 863 nmol·h/L, the AUC(0-t) [1, 12] is given as 2,540 ± 694 nmol·h/L and the Cmax [1, 12] is given as 648 ± 125 nM. For the same molecule, the dose excreted ([6]; feces, Recovery in feces (%), feces collected 0–72 h) was 23.6%, the dose excreted ([6]; urine and feces, Recovery in urine and feces (%), urine plus feces, 0–72 h) was 32.5% and the dose excreted ([6]; urine, Recovery in urine (%), urine collected 0–72 h) was 8.82%. For the same molecule, the “cumulative excretion into feces” value ([6]; single p.o. RPM extract 18 g/kg, rat feces) was 50.3 ± 6.18 nmol, the “cumulative excretion into urine” value ([6]; single p.o. RPM extract 18 g/kg, rat urine) was 19.0 ± 3.81 nmol and the “cumulative excretion into bile” value [7] was 70.7 ± 20.4 nmol. For the same molecule, the “time at which C max was exhibited” value ([8]; RPM extract p.o., rat plasma) was ≤ 20 min, the AUC(0-inf) ([8]; 6 g/kg) was 1.35 µM·h and the AUC(0-t) ([8]; 6 g/kg) was 1.04 µM·h. It also gave a Cmax ([8]; 6 g/kg) of 205 ± 39.4 nM, an MRT inf ([8]; 6 g/kg) of 12.7 ± 4.65 h and a Tmax ([8]; 6 g/kg) of 7.2 ± 4.2 min. The half-life ([8]; 6 g/kg) was 7.72 ± 3.67 h, the AUC(0-inf) ([8]; 18 g/kg) was 2.91 µM·h and the AUC(0-t) ([8]; 18 g/kg) was 2.48 µM·h. It also gave a Cmax ([8]; 18 g/kg) of 491 ± 35.8 nM, an MRT inf ([8]; 18 g/kg) of 13 ± 4.18 h and a Tmax ([8]; 18 g/kg) of 8.4 ± 5.4 min. The half-life ([8]; 18 g/kg) was 9.44 ± 3.63 h, the AUC(0-t) ([9]; both, bladder) was 0.988 µM·h and the AUC(0-t) ([9]; both, brain) was 0.244 µM·h. It also gave an AUC(0-t) ([9]; both, heart) of 1.64 µM·h, an AUC(0-t) ([9]; both, intestine) of 5.57 µM·h and an AUC(0-t) ([9]; both, kidney) of 2.83 µM·h. For the same molecule, the AUC(0-t) ([9]; both, liver) was 6.36 µM·h, the AUC(0-t) ([9]; both, lung) was 7.11 µM·h and the AUC(0-t) ([9]; both, spleen) was 19.1 µM·h. It also gave an AUC(0-t) ([9]; both, stomach) of 1.72 µM·h, an AUC(0-t) ([9]; female, ovary) of 0.57 µM·h and an AUC(0-t) ([9]; female, uterus) of 0.773 µM·h. The AUC(0-t) ([9]; male, testis) was 0.116 µM·h, the AUC0-t in spleen ([9]; rat tissue: spleen, 18 g/kg RPM extract p.o., tissues collected at 5, 15, 60 min) was 19.1 µM·h and the logP [10] was 5.03. For the same molecule, the “Conclusion (dose-exposure relationship)” value ([11]; AUC0-∞ vs p.o. dose of RPM extract, critical interval 0.88–1.12) was “Nonlinear correlation”, the “Conclusion (dose-exposure relationship)” value ([11]; C max vs p.o. dose of RPM extract, critical interval 0.80–1.20) was “Nonlinear correlation” and the “Slope (90%CI)” value ([11]; log AUC0-∞ vs log p.o. dose of RPM extract, critical interval 0.88–1.12) was 0.466 (0.290–0.642). The “Slope (90%CI)” value ([11]; log C max vs log p.o. dose of RPM extract, critical interval 0.80–1.20) was 0.656 (0.554–0.758).
